Laboratory results taken from patent US10550163B2 (The Regents of the University of California, priority 2014, dated 2020).

Experiments:
[1] = tested on: endothelial cell NO production; experiment: Endothelial cell nitric oxide production by electron spin resonance (ESR); type: cell-based, bovine; conditions: endothelial cells, 37° C., 60 minutes, Mean±SEM
Procedure: (§1) Confluent endothelial cells were incubated with different peptide fragments V1-9aa, V2-10aa, and V3-11aa at the same molar concentration of 1.47 nmol/L at 37° C. for 60 minutes in modified Krebs/HEPEs buffer containing the NO-specific spin trap Fe^2+(DETC)2. Cells were then gently collected for analysis of NO production by using electron spin resonance (ESR).
as §1, with “different combination of” for “different”, “V1-9aa alone, V1-9aa+V2-10aa (1:1), V1-9aa+V3-11aa (1:1),” for “V1-9aa, V2-10aa,”, “V2-10aa+V3-11aa (1:1)” for “V3-11aa”, “same total” for “same”
To further identify the synergistic effects peptide fragments according to the present invention, endothelial cells were treated with different combinations of peptide fragments. The treatment groups were: V1-9aa+V2-10aa group, V1-9aa+V3-11aa group, and V2-10aa+V3-11aa group. The amount of each peptide fragment was 50% of the total amount by molar concentration (or equal volume at the same molar concentration) of peptide fragments in the composition, and the final molar concentration was 1.47 nmol/L. Control group (no peptide treatment) and V1-9aa group (1.47 nmol/L) were used to compare with the combination groups. The results, shown in FIG. 7, indicate that the V1-9aa+V2-10aa group produced more NO than the V1-9aa group (V1-9aa+V2-10aa: 1.90±0.50 fold vs. V1-9aa: 1.42±0.18 fold, p<0.05).
Bovine aortic endothelial cells (BAECs, Cell Systems, Kirkland, Wash., USA) were cultured in media 199 containing 10% fetal bovine serum (FBS) as previously described. See Chalupsky & Cai, PNAS USA 2005; 102:9056-9061; and Nguyen & Cai, PNAS USA 2006; 103:6530-6535.

I/R-injured mouse hearts = experiment: Langendorff ischemia/reperfusion injury of isolated mouse hearts, post-conditioning (peptide at reperfusion); infarct size by TTC; design: species or system mouse (C57BL/6J); conditions: isolated C57BL6 hearts, peptide 1.47 nmol/L during 60 min reperfusion after 20 min ischemia, Control I/R 37.6±1.3%, Mean±SEM
Procedure: Hearts of C57BL6 mice were freshly isolated and subject to ischemia reperfusion (I/R) injury using a Langendorff perfusion system. Hearts were pre-perfused with Krebs-Henseleit buffer for 40 minutes, and then I/R injury was consistently produced by subjecting the hearts to 20 minutes of normo-thermic ischemia, followed by reperfusion for 60 minutes with or without peptide fragment V1, V2, or V3 at the same molar concentration of 1.47 nmol/L. Sections of hearts were stained with 2,3,5-TTC and infarct area calculated as % of risk area.
Post-conditioning I/R experiments were performed as illustrated in FIG. 4A. Different peptide fragments V1-9aa, V2-10aa, V3-16aa, and V3-11aa were used at the same molar concentration of 1.47 nmol/L. Sections of hearts were stained with 2,3,5-TTC and infarct area calculated as % of risk area.
Male C57BL/6J mice (8-12 weeks old) were obtained from the Charles River Laboratories (Wilmington, Mass., USA). After anesthetized with intraperitoneal pentobarbitone (60 mg/kg), mouse hearts were harvested immediately and the aortas were cannulated with a 20-gauge stainless steel blunt needle and transferred to the Langendorff rig and perfused retrograde instantly with modified Krebs-Henseleit buffer (KHB) […] as previously described. See Bouhidel et al. Front Biosci (Landmark Ed) 2014; 19:566-570, and Zhang et al., J Mol Cell Cardiol. 2010; 48:1060-1070. […] Hearts were then harvested for analyses of infarct size. For post-conditioning treatment with peptide fragments, hearts underwent 40 minutes of KHB perfusion, 20 minutes of global ischemia, and a 60 minute reperfusion with different peptide fragments.
At the end of I/R protocol, hearts were sliced perpendicular to the long-axis of the heart at 1 mm intervals and stained with 1% triphenyl tetrazolium chloride (TTC) in PBS for 10 minutes at room temperature. After washing with PBS once, sections of the hearts will be fixed in 10% formalin overnight. […] Infarct size is expressed as an infarct-to-risk zone ratio (the risk zone is the whole ventricular volume in this global ischemic model).

[2] = single peptide 1.47 nmol/L, ESR (FIG. 6)

Row | Substance | NO production, fold vs. control ([1]; combination experiment (FIG. 7), 1:1, total 1.47 nmol/L, ESR) | NO production, fold vs. control [1, 2] | infarct size (infarct area as % of risk area) (I/R-injured mouse hearts)
1 | V1-9aa: SEQ ID NO: 4, residues 304-312 of human netrin-1: CDCRHNTAG (listed as Homo sapiens) | 1.42±0.18 fold | 1.50±0.09 fold | 16.8±2.2%
2 | V2-10aa: SEQ ID NO: 5, residues 368-377 of human netrin-1: CLNCRHNTAG (listed as Homo sapiens) | – | 1.44±0.08 fold | 18.6±1.7%
3 | V3-11aa: SEQ ID NO: 6, residues 423-433 of human netrin-1: CPCKDGVTGIT (listed as Homo sapiens) | – | 1.45±0.11 fold | 16.7±3.0%
